# Measured values published in patent US9802064B2, “Microcapsule comprising glycoprotein derived from plants” (AMOREPACIFIC CORPORATION, priority 2012, dated 2017).
# Test: DPPH assay of anti-oxidative (radical scavenging) activity
# Assay type: biochemical
# Conditions: 100 μM DPPH, 37° C., 30 minutes, absorbance 517 nm; FIG. 7
# Protocol: To evaluate anti-oxidative activity, DPPH (1,1-diphenyl-2-picrylhydrazyl) assay was carried out. The samples used in this test (Doore Co., Ltd.) are as follows.
# DPPH assay is a test in which an oxidant called DPPH is used to initiate oxidation and the ability of a sample to be tested in removing radicals is determined. When DPPH meets a material having anti-oxidative activity, it […] electrons to cause radical removing and undergoes a change in color from purple to yellow. Thus, it is possible to observe the oxidative activity of a material easily with the naked eye.
# Each sample was introduced to a 96-well plate in an amount of 10 μl, and 100 μM of DPPH was introduced thereto in an amount of 190 μl. After carrying out reaction at 37° C. for 30 minutes, the absorbance was measured at 517 nm. Vitamin C was used as positive control (10, 5, 2.5 μg/ml).
substance,measurement,value
sodium caseinate [ISAI-022],anti-oxidative activity (DPPH radical scavenging),no radical scavenging activity
